Test results from patent publication US6670485B2, “Prostanoic acid derivatives as agents for lowering intraocular pressure” (Allergan, Inc., priority 2001, dated 2003).

Assays:
[1] = test system: Dog intraocular pressure; assay: Intraocular pressure in dogs by applanation pneumatonometry; format: in vivo; settings: 25 μl to the ocular surface, contralateral eye vehicle, IOP before drug administration and at 6 hours thereafter
Procedure: The effects of the compounds of this invention on intraocular pressure are also measured. The compounds are prepared at the said concentrations in a vehicle comprising 0.1% polysorbate 80 and 10 mM TRIS base. Dogs are treated by administering 25 μl to the ocular surface, the contralateral eye received vehicle as a control. Intraocular pressure is measured by applanation pneumatonometry. Dog intraocular pressure is measured immediately before drug administration and at 6 hours thereafter.

[2] = test system: intraocular pressure; assay: Intraocular pressure in glaucomatous cynomolgus monkeys; format: in vivo; settings: glaucomatous cynomonlgus monkeys

| SMILES | ocular hypotensive effect [1] | ocular hypotensive effect [2] |
| --- | --- | --- |
| C=CCOC(=O)CCC/C=C\C[C@H]1C(=O)C[C@@H](O)[C@@H]1/C=C/[C@@H](O)CCc1sc2ccccc2c1Cl [6(a), (Z)-7-{(1R,2R,3R,5S)-2-[(E)-(S)-5-(3-Chlorobenzo[b]thiophen-2-yl)-3-hydroxypent-1-enyl]-3-hydroxy-5-oxocyclopentyl}hept-5-enoic acid allyl ester] | pronounced ocular hypotensive effect | – |
| O=C(O)CCC/C=C\C[C@H]1C(=O)C[C@@H](O)[C@@H]1/C=C/[C@@H](O)CCc1sc2ccccc2c1Cl [7(a), (Z)-7-{(1R,2R,3R,5S)-2-[(E)-(S)-5-(3-Chlorobenzo[b]thiophen-2-yl)-3-hydroxypent-1-enyl]-3-hydroxy-5-oxocyclopentyl}hept-5-enoic acid] | – | pronounced ocular hypotensive effect |
